This is an account of results in PubChem BioAssay (NCI).

The structures appear in SMILES notation.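 Results reflect a 48-hour exposure of cells in 96-well plates to compound at five concentrations. GI50 marks 50% less growth. TGI: concentration producing complete growth inhibition.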

Experiment in all cases: inhibition of tumour cell growth, NCI panel, 48 h
Test [1] concerns 786-0 renal.
Test [2] relates to DU-145 prostate.
Test [3] deals with HOP-92 NSCLC.
For test [4], the system named is MDA-N.
The test system of test [5] is OVCAR-3 ovarian.
Test [6] has as its system OVCAR-5 ovarian.
In test [7] the test system is OVCAR-8 ovarian.
The subject of test [8] is SK-MEL-2 melanoma.
For test [9], the system named is SR leukemia.
In test [10] the test system is SW-620 colon.
For test [11], the system named is T-47D breast.

Turning to `Cc1cccc2sc(NC(=O)c3cc([N+](=O)[O-])ccc3Cl)nc12`, the TGI in [1] is 4.67 µM; in test [2], 17.4 µM; in test [3], greater than 31.2 µM; in [4], 3.69 µM; in test [5], 17.4 µM; in test [6] it was 28.4 µM. The TGI in test [7] is 9.95 µM; in test [8], greater than 100 µM; in test [9], greater than 100 µM; in test [10] it was 6.35 µM; in test [11], greater than 100 µM.
With `O=[N+]([O-])c1ccc(Cl)cc1C1ON=C(c2ccccc2)N1C12CC3CC(CC(C3)C1)C2` (centres undefined), the TGI in test [1], in [2], in test [3], in [4], in test [5] and in test [6] was greater than 100 µM each time. Further, the TGI in [8], in test [9] and in test [11] was greater than 100 µM throughout.
With `O=C(O)c1c(CC(Cc2ccc3c(c2)CCCC3)C(=O)O)ccc2c1CCCC2` (centres undefined), the TGI in test [1], in test [2], in [3], in test [4], in test [5] and in test [6] was greater than 100 µM each time. For the same compound, the TGI in test [7], in test [8], in test [9], in test [10] and in test [11] was greater than 100 µM in each case.
With `O=C1CC(Br)c2c(Cl)sc(Cl)c21` (centres undefined), the TGI in test [1] was 8.91 µM; in test [2] it was 31.3 µM; in test [3] it was 29.6 µM; in test [4], 12.2 µM; in [5], 6.32 µM; in test [6], 36.3 µM. Besides, the TGI in [7] stood at 10.4 µM; in test [8] it was 32.3 µM; in [9], 32.2 µM; in test [10], 5.43 µM; in test [11], 16 µM.
On to `COc1ccc(/C=C2\CN(C)CC3=C2OC(N)=C(C#N)C3c2ccc(OC)cc2)cc1` (centres undefined), for which the TGI in test [1] was greater than 100 µM; in test [2], greater than 100 µM; in [3] it was 59.3 µM; in test [4], greater than 100 µM; in test [5], greater than 93.1 µM; in [6] it was greater than 100 µM. Moreover, the TGI in test [7] is greater than 100 µM; in test [8], greater than 65.5 µM; in test [9], greater than 100 µM; in [10] it was greater than 100 µM; in test [11], greater than 100 µM.
As to `COC(=O)C(NC(=O)CNC(=O)CSc1nnc(COc2ccc(Cl)cc2)n1-c1ccccc1)C(C)C` (centres undefined), the TGI in test [1] is 32.5 µM; in [2], 35.2 µM; in [3], 51.5 µM; in test [4], 51.2 µM; in test [5], 31.6 µM; in [6], 40.1 µM. The TGI was 40.8 µM in test [7], 40.5 µM in [8], 52.3 µM in test [9] and 38.2 µM in test [10].
In the case of `Clc1ccc(OCc2nnc3sc(-c4ccc(-c5ccc(Cl)cc5Cl)o4)nn23)c(Cl)c1`, the TGI in test [1] amounted to 26.1 µM; in test [2] it was 66.8 µM; in test [3], 37.4 µM; in test [4] it was 71.3 µM; in test [5], 34 µM; in test [6], 49.1 µM. In addition, the TGI is 32.1 µM in test [7]; 32.1 µM in test [8]; 25.5 µM in test [9]; greater than 100 µM in [10]; 54.6 µM in [11].
For the compound `COC(=O)C1=NN2c3ccccc3C(=O)OCCC2C1` (centres undefined), the TGI in test [1], in [2], in [3], in [4], in [5] and in [6] was greater than 100 µM each time. Further, the TGI in test [7], in test [8], in test [9], in test [10] and in test [11] was greater than 100 µM each time.
On to `Cc1cc2c(cc1O)CC[C@@H]1[C@@H]2CC[C@]2(C)[C@@H](O)CC[C@@H]12`, for which the TGI in test [1] was found to be 30.9 µM; in [2], 36.1 µM; in test [3], 30.4 µM; in [4], 4.39 µM; in test [5], 22.1 µM; in test [6], 71.9 µM. The TGI was 51.7 µM in test [7]; 19.8 µM in test [8]; 5.5 µM in test [9]; 37.5 µM in [10]; 38.9 µM in test [11]. Also, the GI50 in test [2] is 16 µM; in [5], 9.14 µM.
As for `Cc1nc2c(nc1C)-c1c(c3c(n1Cc1ccccc1)C(=O)CCC3)C(=O)C2=O`, the TGI was greater than 100 µM in [1]; 88.8 µM in [2]; 90.3 µM in [3]; 4.82 µM in test [4]; greater than 100 µM in test [6]; greater than 100 µM in [7]. In addition, the values for the TGI in test [8], in test [9] and in [11] were 31.7 µM, 6.36 µM and greater than 100 µM, respectively.
With `O=c1c2cc(Br)ccc2oc2nc3n(c(=O)c12)CCCS3`, the TGI in test [1], in [2], in [3], in test [4], in test [5] and in test [6] was greater than 100 µM in each case. In addition, the TGI in [7], in test [8], in [9], in [10] and in test [11] was greater than 100 µM throughout.
In the case of `C=C1C(=O)OC2/C=C(\C)C(O)CC(O)C(C)(O)CC(OC(=O)/C(C)=C/C)C12` (centres undefined), the TGI in test [1] was greater than 100 µM; in test [2] it was greater than 100 µM; in test [3], 99.8 µM; in test [4] it was greater than 100 µM; in test [5] it was greater than 100 µM; in test [6], greater than 100 µM. In addition, the TGI is greater than 100 µM in [7]; greater than 100 µM in test [8]; greater than 55.9 µM in [9]; greater than 100 µM in test [10]; greater than 100 µM in [11].
For `C=CC1OC(CCCOC(=O)C(C)(C)C)O[C@@H]1CC` (some centres undefined), the TGI in [2], in test [3], in [4], in test [5], in [6] and in test [7] was greater than 100 µM in each case. The TGI in [8], in test [9], in test [10] and in test [11] was greater than 100 µM in each case.
